The target in one assay is T1, recombinant RCA (rRCA) (Arabidopsis thaliana, UniProt P10896).
T1 construct: made in house; host or cells: E. coli BL21 (DE3) One Shot
In words: biochemical. In kind it is binding. On the procedure:
SPR experiments were performed at 20 °C on a Biacore T100 instrument (GE Healthcare LifeSciences) with the use of Series S CM5 […] sensor chips as previously described. Data were acquired with Biacore T100 control software (version 2.0.2, GE Healthcare LifeSciences, Chicago, IL, USA). Kinetic analyses were performed at the flow of 100 μL min^−1 with pAtPNP-A (at 3.78 μM and consecutive two-fold dilutions; 11 injections included) […], whereas recombinant His-tagged RCA was used as […] immobilized on the active surface of the series S CM5 sensor chip with amine coupling kit. The surface was regenerated with glycine solution, pH 2.0 (GE Healthcare LifeSciences). The final sensorgram was generated with Scrubber (BioLogic Software Pty Ltd., Campbell, Australia).
In both analyses the ligand was immobilized at the same levels, analytes were injected at the same concentration and conditions of runs kept constant.

In assay [1] the target is T2, purified recombinant N-terminally His-tagged rubisco activase (rRCA) (Arabidopsis thaliana, UniProt P10896 59-474).
T2 construct: Rubisco activase (RCA), A. thaliana, At2g39730; also called recombinant RCA; source: E. coli BL21 (DE3) One Shot, purified (Ni-NTA beads, HisTrap HP column); not shown: His6, N-terminal, kept
T2 sequence (looked up): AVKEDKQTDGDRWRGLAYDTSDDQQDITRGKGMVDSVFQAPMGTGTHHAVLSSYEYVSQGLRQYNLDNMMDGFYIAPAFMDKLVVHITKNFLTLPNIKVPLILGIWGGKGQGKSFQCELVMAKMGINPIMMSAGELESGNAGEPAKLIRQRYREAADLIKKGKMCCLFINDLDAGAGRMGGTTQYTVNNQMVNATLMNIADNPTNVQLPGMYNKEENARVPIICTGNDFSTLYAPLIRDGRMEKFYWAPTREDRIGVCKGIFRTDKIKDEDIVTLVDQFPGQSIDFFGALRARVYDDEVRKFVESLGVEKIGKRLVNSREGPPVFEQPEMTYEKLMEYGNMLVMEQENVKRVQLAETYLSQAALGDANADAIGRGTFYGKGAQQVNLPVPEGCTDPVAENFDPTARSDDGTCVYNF
In words: SPR; kinetic analysis: His-tagged rRCA immobilised by amine coupling on a Series S CM5 chip, pAtPNP-A injected at 3.78 μM and consecutive two-fold dilutions (11 injections), flow 100 μL/min, regeneration with glycine pH 2.0; Biacore T100, 20 °C. Particulars: both partners purified. Background: SPR reads the build-up and loss of mass on a sensor chip optically.

Assay [2] addresses T2, purified recombinant N-terminally …. The description is as above. The conditions noted are these: both partners purified. This is another data set of the same source.

“Also recorded” adds a separate entry of the source. Bridge positions count the residues as written; N and C are the ends. Ends that are not written are not given here. Peptide text beside a SMILES is read from it. * marks the point of attachment. Biotin = O=C1N[C@H]2[C@H](CS[C@H]2CCCCC(=O)*)N1

On to `CC(C)C[C@@H]1NC(=O)[C@H](CC(N)=O)NC(=O)[C@H](CC(N)=O)NC(=O)[C@H](CCCCN)NC(=O)[C@H](C(C)C)NC(=O)CNC(=O)[C@H](C(C)C)NC(=O)[C@H](C(C)C)NC(=O)[C@H](CC(C)C)NC(=O)[C@H]([C@@H](C)O)NC(=O)[C@H](CCC(=O)O)NC(=O)[C@H](CCCNC(=N)N)NC(=O)[C@H](CCC(N)=O)NC(=O)[C@H]([C@@H](C)O)NC(=O)CNC(=O)[C@H](Cc2ccc(O)cc2)NC(=O)[C@@H](NC(=O)[C@H](C)NC(=O)[C@H](CO)NC(=O)[C@H](CCCNC(=N)N)NC(=O)[C@@H](NC(=O)[C@H](Cc2ccc(O)cc2)NC(=O)[C@@H]2CCCN2C(=O)[C@@H]2CCCN2C(=O)[C@H](CC(=O)O)NC(=O)[C@H](Cc2ccc(O)cc2)NC(=O)[C@H](Cc2ccc(O)cc2)NC(=O)[C@@H](NC(=O)[C@H](C)NC(=O)CCCC[C@@H]2SC[C@@H]3NC(=O)N[C@@H]32)C(C)C)[C@@H](C)O)CSSC[C@@H](C(=O)NCC(=O)N[C@@H](CCCNC(=N)N)C(=O)N[C@@H](CCCNC(=N)N)C(=O)N[C@@H](Cc2ccc(O)cc2)C(=O)O)NC(=O)[C@H](C)NC(=O)[C@H](CCCNC(=N)N)NC(=O)CNC(=O)[C@H](CC(N)=O)NC(=O)[C@H](CCC(N)=O)NC(=O)[C@H](Cc2c[nH]c3ccccc23)NC1=O` [pAtPNP-A] (Biotin-AVYYDPPYTRSACYGTQRETLVVGVKNNLWQNGRACGRRY-OH; disulfide 13-36), for which the “dissociation constant, range in words” value on recombinant RCA (rRCA) is recorded as “sub-micromolar range; also recorded: nanomolar range”. Moreover, the kon at recombinant RCA (rRCA) (read-out: ka (±SE), association rate constant) turned out to be 16300 M⁻¹ s⁻¹. The koff at recombinant RCA (rRCA) (read-out: kd (±SE), dissociation rate constant) was 0.000852 s⁻¹.

B1: pAtPNP-A, N-terminally biotinylated AtPNP-A(33–66) peptide containing the active region of AtPNP-A (peptide, UniProt Q9ZV52 33-66, looked up)
peptide: Biotin-YDPPYTRSACYGTQRETLVVGVKNNLWQNGRACG
modifications: disulfide 10-33 (inferred)
notes: AtPNP-A (plant natriuretic peptide A), A. thaliana, At2g18660, residues 33-66 (active region); Peptides were bought with or without the N-terminal biotin tag; also called biologically active fragment of AtPNP-A; source: synthetic peptide, bought: GenScript (purity at least 95%, HPLC)
What is called Kd is the concentration at which binding is half-saturated. For B1, the Kd was 0.053 µM in assay [1] and 0.0523 µM in assay [2].

(Values after PMC7823470, “Arabidopsis Plant Natriuretic Peptide Is a Novel Interactor of Rubisco Activase” (Life, 2020).)
